The values that follow come from PMC9138991, “Effect of Trimethine Cyanine Dye- and Folate-Conjugation on the In Vitro Biological Activity of Proapoptotic Peptides” (Biomolecules, 2022).

Structures are written as SMILES. Where a SMILES comes first, the peptide text is derived from it. [ ]: non-standard residue; d: D form. The star is where a group is joined. X1 = CN1/C(=C\C=C\C2=[N+](CCCCCC(=O)*)c3ccccc3C2(C)C)C(C)(C)c2ccccc21; Cha = N[C@@H](CC1CCCCC1)C(=O)O; dCha = N[C@H](CC1CCCCC1)C(=O)O

Broadly, the EC50 is the concentration at which the effect is half-maximal.

Type in all cases: cell-based, human
The test system of one experiment is KB cells. Briefly: Cell viability assay (CellTiter-Blue), KB cells. Particulars: 7 × 10^3 cells per well, folic acid-depleted RPMI-1640 + 10% FBS, 1% DMSO, 24 h at 37 °C, then CellTiter-Blue 4 h, three biological replicates fitted in Origin, standard error in brackets. How it is done:
(§1) KB and MCF7 cells were kindly gifted by Prof. Arwyn T. Jones (Cardiff University), HEK293 cells were purchased from Public Health England, and SK-OV-3 cells were purchased from National Collection of Authenticated Cell Cultures (https://cell-bank.org.cn/). Cells were routinely tested for mycoplasma infection. KB and SK-OV-3 cells were maintained in T75 flasks at 37 °C in a 5% CO2 atmosphere in folic acid-depleted Roswell Park Memorial Institute (RPMI)-1640 medium supplemented with 10% (v/v) fetal bovine serum (FBS). MCF7 and HEK293 cells were maintained in T75 flasks at 37 °C in a 5% CO2 atmosphere in Dulbecco’s Modified Eagle’s medium (DMEM) supplemented with 10% (v/v) FBS. Cells were maintained at a sub-confluent monolayer and split at 80–85% confluency. For splitting, cells were washed with PBS, trypsinized in 1 mL of trypsin, and 200 µL of the 1000 µL trypsin cell suspension was re-suspended in 12 mL fresh DMEM containing 10% (v/v) FBS in a new T75 flask. KB and SK-OV-3 cells were used for biological experiments after being maintained for at least 10 days in folic acid-depleted RPMI-1640 medium.
(§2) SK-OV-3, MCF7, and HEK293 cells were seeded at a density of 2 × 10^4 cells per well in a Nunc™ MicroWell™ 96-well plate and grown at 37 °C in a 5% CO2 atmosphere in DMEM supplemented with 10% (v/v) FBS for 24 h. KB cells were seeded at a density of 7 × 10^3 cells per well in a 96-well plate and grown at 37 °C in a 5% CO2 atmosphere in folic acid-depleted RPMI-1640 medium supplemented with 10% (v/v) FBS for 24 h. Stock solutions of compounds 2–6 and 11–13 were obtained by dissolving the compounds in sterile deionized water. Compounds 1, and 7–10 were dissolved in pure DMSO. The stock solutions were diluted into the proper medium (according to the cell line tested) supplemented with 10% FBS to the appropriate concentration, and cells in each well were incubated with 100 µL of the solution. The solutions in each well were then adjusted to a concentration of 1% (v/v) DMSO. After 24 h at 37 °C, 20 µL of CellTiter-Blue™ was added to each well. The plate was incubated for another 4 h at 37 °C before analysis on a Perkin Elmer Victor X plate reader (excitation 531 nm; emission 595 nm). Each data point was calculated from a minimum of nine values resulting from three biological replicates (i.e., cells split from three different passages); each biological replicate is calculated from three technical replicates (i.e., cells split from the same passage). Value from media-only with CellTiter-Blue™ was set at 0% viability. This value was then subtracted from the values from cell-only (i.e., non-treated) wells with CellTiter-Blue™ in each biological replicate and set as 100% viability. For treatments of Cy3-containing compounds, blanks were generated with cell-free wells containing the compounds incubated for 24 h before addition of CellTiter-Blue™. The fluorescent reading for these wells was deducted from the treatment readings. Dose-response fitting curves were generated using Origin, version 2019b, OriginLab Corporation, Northampton, MA, USA (Figures S21–S24, Supplementary Materials).
(§3) Comparison of cytotoxicity fitting curves was achieved by applying the extra sum-of-squares F test, performed using GraphPad Prism version 9 for Windows, GraphPad Software, La Jolla, California, USA (https://www.graphpad.com/). […] Statistical analysis on the flow cytometry data was achieved by applying the unpaired two-tailed t-test test, performed using GraphPad Prism version 9 for Windows, GraphPad Software, La Jolla California USA, USA (https://www.graphpad.com/).
(§4) Cytotoxicity of 1–13 was evaluated using the CellTiter-Blue assay on KB, MCF7, SK-OV-3, and HEK293 cells. KB cells are derived from human cervical cancer, while SK-OV-3 cells are derived from human ovarian cancer. […] This feature is of particular relevance in anticancer applications, as it can be exploited for selective targeting and delivery. […]
(Alamar Blue is a resazurin reagent that responds to reducing activity.)

A further experiment has as its system SK-OV-3 cells. Nature of the experiment: Cell viability assay (CellTiter-Blue), SK-OV-3 cells. As to conditions: 2 × 10^4 cells per well, medium + 10% FBS, 1% DMSO, 24 h at 37 °C, then CellTiter-Blue 4 h, three biological replicates fitted in Origin, standard error in brackets. The protocol: as §1, §2, §3, §4
The subject of the next experiment is MCF7 cells. Briefly: Cell viability assay (CellTiter-Blue), MCF7 cells. As to conditions: MCF7 cells, 2 × 10^4 cells per well, DMEM + 10% FBS, 1% DMSO, 24 h at 37 °C, then CellTiter-Blue 4 h; three biological replicates fitted in Origin, standard error in brackets. How it is done: as §1, §2, §3, §4
The next experiment concerns HEK293 cells. Briefly: Cell viability assay (CellTiter-Blue), HEK293 cells. Particulars: 2 × 10^4 cells per well, DMEM + 10% FBS, 1% DMSO, 24 h at 37 °C, then CellTiter-Blue 4 h, three biological replicates fitted in Origin, standard error in brackets. The protocol:
as §1, §2, §3, §4

For experiment [1], the system named is mitochondria of SK-OV-3 cells. Nature of the experiment: Confocal microscopy, colocalisation with MitoTracker Green FM, SK-OV-3 cells. Particulars: 10 µM conjugate, 10 min at 37 °C; for Pearson's correlation coefficient of MitoTracker Green and Cy3 fluorescence: imaged at 20X; for Pearson's correlation coefficient of MitoTracker Green FM and Cy3 fluorescence: imaged at 63X. The protocol:
(§5) SK-OV-3 and MCF7 were seeded at a density of 1 × 10^6 cells per well in glass-bottom culture dishes and grown at 37 °C in a 5% CO2 atmosphere in medium supplemented with 10% (v/v) FBS for 24 h. Cells were washed once with the RPMI-1640 medium supplemented with 10% (v/v) FBS before staining. Compounds 1, 5–10 were diluted into the RPMI-1640 medium supplemented with 10% (v/v) FBS to 10 μM and then added to the culture dishes, respectively. After 10-min incubation at 37 °C, cells were washed with RPMI-1640 medium supplemented with 10% (v/v) FBS. Cells were then treated with 50 nM MitoTracker Green FM and 10 μg/mL Hoechst33258 pre-formulated with RPMI-1640 medium supplemented with 10% (v/v) FBS and then incubated for another 10 min at 37 °C before analysis on ZEISS LSM 900 with Airyscan 2. The results were analyzed using Image J software (Figure 3 and Figures S4–S7 in Supplementary Materials).
(§6) Figure 3 Confocal microscopy images of SK-OV-3 and MCF7 cells treated with Cy3-containing conjugates. Cells were treated with 10 µM of the indicated conjugate for 10 min at 37 °C, washed, stained with 50 nM MitoTracker Green FM and 10 μg/mL Hoechst33258 for 10 min at 37 °C, washed, and imaged at 63X. Pearson’s correlation coefficients of MitoTracker Green FM and Cy3 fluorescence for compounds 1, 5, 6, 7, 8, 9, and 10 in SK-OV-3 and MCF cells are 0.75/0.64, 0.73/0.81, 0.91/0.61, 0.78/0.63, 0.85/0.69, 0.43/0.82, and 0.78/0.60, respectively. Excitation wavelengths for Hoechst33258, MitoTracker Green FM and Cy3 were set as 405, 488, and 561 nm, respectively. Scale bars denote 25 μm. Additional images, including the results of Hoechst33258 staining, are shown in Figure S4 (SK-OV-3 at 20X), Figure S5 (SK-OV-3 at 63X), Figure S6 (MCF7 at 20X) and Figure S7 (MCF7 at 63X), Supplementary Materials.

Experiment [2] relates to mitochondria of MCF7 cells. Nature of the experiment: Confocal microscopy, colocalisation with MitoTracker Green FM, MCF7 cells. Particulars: 10 µM conjugate, 10 min at 37 °C; for Pearson's correlation coefficient of MitoTracker Green and Cy3 fluorescence: imaged at 20X; for Pearson's correlation coefficient of MitoTracker Green FM and Cy3 fluorescence: imaged at 63X. How it is done:
as §5, §6

Take `CC(C)C[C@H](NC(=O)[C@H](CCCCN)NC(=O)CCCCC[N+]1=C(/C=C/C=C2\N(C)c3ccccc3C2(C)C)C(C)(C)c2ccccc21)C(=O)N[C@@H](C)C(=O)N[C@@H](CCCCN)C(=O)N[C@@H](CC(C)C)C(=O)N[C@@H](C)C(=O)N[C@@H](CCCCN)C(=O)N[C@@H](CCCCN)C(=O)N[C@@H](CC(C)C)C(=O)N[C@@H](C)C(=O)N[C@@H](CCCCN)C(=O)N[C@@H](CC(C)C)C(=O)N[C@@H](C)C(=O)N[C@@H](CCCCN)C(N)=O` [Compound 5]: the EC50 was found to be 6.7 µM in the experiment with KB cells, 11 µM in the experiment with SK-OV-3 cells, 7.37 µM in the experiment on MCF7 cells and 44.3 µM in the experiment with HEK293 cells. The “Pearson's correlation coefficient of MitoTracker Green and Cy3 fluorescence” value in experiment [1] amounted to 0.76; in experiment [2] it was 0.80. Further, the “Pearson's correlation coefficient of MitoTracker Green FM and Cy3 fluorescence” value in experiment [1] was found to be 0.73; in experiment [2] it was 0.81.
On to `CC(C)C[C@@H](NC(=O)[C@@H](CCCCN)NC(=O)CCCCC[N+]1=C(/C=C/C=C2\N(C)c3ccccc3C2(C)C)C(C)(C)c2ccccc21)C(=O)N[C@H](C)C(=O)N[C@H](CCCCN)C(=O)N[C@H](CC(C)C)C(=O)N[C@H](C)C(=O)N[C@H](CCCCN)C(=O)N[C@H](CCCCN)C(=O)N[C@H](CC(C)C)C(=O)N[C@H](C)C(=O)N[C@H](CCCCN)C(=O)N[C@H](CC(C)C)C(=O)N[C@H](C)C(=O)N[C@H](CCCCN)C(N)=O` [Compound 6], for which the EC50 in the experiment on KB cells was 3.5 µM; in the experiment with SK-OV-3 cells it was 6.39 µM; with MCF7 cells, 5.7 µM; with HEK293 cells, 5.3 µM. Also, the “Pearson's correlation coefficient of MitoTracker Green and Cy3 fluorescence” value is reported as 0.74 in experiment [1] and 0.81 in experiment [2]. The “Pearson's correlation coefficient of MitoTracker Green FM and Cy3 fluorescence” value was found to be 0.91 in experiment [1] and 0.61 in experiment [2].
As to `C[C@@H](NC(=O)[C@H](CC1CCCCC1)NC(=O)[C@@H](CCCCN)NC(=O)[C@@H](C)NC(=O)[C@@H](CC1CCCCC1)NC(=O)[C@@H](CCCCN)NC(=O)CCCCC[N+]1=C(/C=C/C=C2\N(C)c3ccccc3C2(C)C)C(C)(C)c2ccccc21)C(=O)N[C@H](CCCCN)C(=O)N[C@H](CCCCN)C(=O)N[C@@H](CC1CCCCC1)C(=O)N[C@H](C)C(=O)N[C@H](CCCCN)C(=O)N[C@H](CC1CCCCC1)C(=O)N[C@H](C)C(=O)N[C@H](CCCCN)C(N)=O` [Compound 7] (X1-[dK][dCha][dA][dK][Cha][dA][dK][dK][Cha][dA][dK][dCha][dA][dK]-NH2), the EC50 with KB cells was found to be 5.5 µM; in the experiment on SK-OV-3 cells, 23 µM; in the experiment on MCF7 cells it was 11.6 µM; with HEK293 cells it was 8.2 µM. Also, the “Pearson's correlation coefficient of MitoTracker Green and Cy3 fluorescence” value in experiment [1] came to 0.74; in experiment [2], 0.52. In addition, the “Pearson's correlation coefficient of MitoTracker Green FM and Cy3 fluorescence” value was 0.78 in experiment [1] and 0.63 in experiment [2].
As to `CC(C)C[C@H](NC(=O)[C@H](CCCCN)NC(=O)[C@H](C)NC(=O)[C@H](CC(C)C)NC(=O)[C@H](CCCCN)NC(=O)[C@H](CCCCN)NC(=O)[C@H](C)NC(=O)[C@H](CC(C)C)NC(=O)[C@H](CCCCN)NC(=O)[C@H](C)NC(=O)[C@H](CC(C)C)NC(=O)[C@H](CCCCN)NC(=O)[C@H](CCCCNC(=O)[C@H](CCC(=O)O)NC(=O)c1ccc(NCc2cnc3nc(N)nc(O)c3n2)cc1)NC(=O)CCCCC[N+]1=C(/C=C/C=C2\N(C)c3ccccc3C2(C)C)C(C)(C)c2ccccc21)C(=O)N[C@@H](C)C(=O)N[C@@H](CCCCN)C(N)=O` [Compound 8], the EC50 with KB cells is 38.8 µM; in the experiment on SK-OV-3 cells it was 8.8 µM; in the experiment with MCF7 cells, 49.4 µM; with HEK293 cells, 35.6 µM. The “Pearson's correlation coefficient of MitoTracker Green and Cy3 fluorescence” value in experiment [1] was found to be 0.53; in experiment [2], 0.60. Also, the “Pearson's correlation coefficient of MitoTracker Green FM and Cy3 fluorescence” value is reported as 0.85 in experiment [1] and 0.69 in experiment [2].
